# Entries after “also recorded” stand apart in the source; their conditions may differ.
# Legend:
# KDM4A = biological target: T1, KDM4A (Homo sapiens, UniProt O75164); experiment: AlphaScreen demethylase activity assay, KDM4A; assay type: biochemical; conditions: ratio of IC50 values
# T1 construct: KDM4A 1-359 E.coli; Hexa-His (N); made in house; host or cells: E. coli
# T1 sequence (O75164 1-359): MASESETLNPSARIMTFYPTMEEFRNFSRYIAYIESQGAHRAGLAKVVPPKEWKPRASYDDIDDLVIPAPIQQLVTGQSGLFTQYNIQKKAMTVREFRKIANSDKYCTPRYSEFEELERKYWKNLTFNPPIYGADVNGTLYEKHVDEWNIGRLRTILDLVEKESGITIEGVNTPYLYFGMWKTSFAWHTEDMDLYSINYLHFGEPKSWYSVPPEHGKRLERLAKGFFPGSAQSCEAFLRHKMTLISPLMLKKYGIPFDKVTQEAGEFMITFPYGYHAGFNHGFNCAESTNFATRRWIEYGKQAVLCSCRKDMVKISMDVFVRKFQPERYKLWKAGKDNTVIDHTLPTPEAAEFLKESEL
# Method: IC50 values for KDM2–6 were measured using an AlphaScreen assay as described. The appropriate KDM (5 μl) was pre-incubated with an inhibitor (0.1 μl in DMSO) or DMSO for 15 min before the addition of 5 μl mixture of biotinylated peptide substrates, 2OG, ferrous ammonium sulfate (1–10 μM final) and ascorbate (100 μM final) to initiate the demethylation reaction. The reaction was quenched with 5 μl of 30 mM EDTA at predetermined reaction times for each enzyme (initial rate). Demethylated product was detected by addition of 5 μl of AlphaScreen donor and acceptor beads (AlphaScreen General IgG Detection Kit, 0.02 mg ml^−1 final each) pre-incubated with antibody. The plates were read after 1 h incubation in a BMG Labtech Pherastar FS plate reader. Data were normalized to a no enzyme control and IC50 values were calculated using nonlinear regression curve fits using GraphPad Prism. Assay buffer (50 mM HEPES pH 7.5, BSA (0.1% w/v) and Tween-20 (0.01% v/v)) was used throughout, except for dilution of stock ferrous ammonium sulfate solutions where water was used. The enzyme, substrate and antibody concentrations used are described in Supplementary Table 3. A fluorescence-based LSD1 inhibitor screening assay kit (Cayman, 700120) was used for KDM1/LSD1 assay. Assays for prolyl hydroxylase domain 2 and factor inhibiting HIF using matrix-assisted laser desorption/ionization–time of flight MS were performed as previously described. Prism 5.0 (GraphPad) was used to generate and to fit dose–response curves. IC50 values were determined by plotting percentage inhibition versus compound concentration relative to positive (vehicle) and negative (no enzyme) controls, using normalized dose–response (variable slope) fit. The reported values are the mean of multiple experiments (n≥3). The formaldehyde dehydrogenase coupled KDM assay was used to determine the mode of inhibition, using 0.5 μM His-KDM4A1–359. Prism 5.0 (GraphPad) was used to fit in mix-mode inhibition, to determine the kinetic parameters. Binding constants for CPs and H3(1–15)K9me3 were measured using biolayer interferometry (OctetRed 384, ForteBio) in buffer (50 mM HEPES (pH 7.5), 150 mM NaCl, 10 μM ammonium iron(II) sulphate). His-KDM4A1–359-Bio (70 nM) was immobilized onto super streptavidin biosensor and subjected to different peptide concentrations in buffer. Data analysis was performed using ForteBio Data Aalysis (v6.4).
# Construct Expression [E] / nM [2OG] / µM [Fe(II)] / µM Peptide / nM Peptide sequence Antibody Source […]
# Supplementary Table 3. AlphaScreen assay parameters for 2OG oxygenases used for this study. The table was dapted from 10. Assays were performed at 2OG concentration near the 2OG Km values determined experimentally.11 All enzymes were expressed and purified as described.10-12
# FLAG-KDM4E = biological target: T2, FLAG-KDM4E (Homo sapiens, UniProt B2RXH2); experiment: CETSA, FLAG-KDM4E in U2OS cells; assay type: cell-based; conditions: 0.5 µM
# T2 construct: expressed in transfected cells; host or cells: U2OS
# T2 sequence (B2RXH2 1-506): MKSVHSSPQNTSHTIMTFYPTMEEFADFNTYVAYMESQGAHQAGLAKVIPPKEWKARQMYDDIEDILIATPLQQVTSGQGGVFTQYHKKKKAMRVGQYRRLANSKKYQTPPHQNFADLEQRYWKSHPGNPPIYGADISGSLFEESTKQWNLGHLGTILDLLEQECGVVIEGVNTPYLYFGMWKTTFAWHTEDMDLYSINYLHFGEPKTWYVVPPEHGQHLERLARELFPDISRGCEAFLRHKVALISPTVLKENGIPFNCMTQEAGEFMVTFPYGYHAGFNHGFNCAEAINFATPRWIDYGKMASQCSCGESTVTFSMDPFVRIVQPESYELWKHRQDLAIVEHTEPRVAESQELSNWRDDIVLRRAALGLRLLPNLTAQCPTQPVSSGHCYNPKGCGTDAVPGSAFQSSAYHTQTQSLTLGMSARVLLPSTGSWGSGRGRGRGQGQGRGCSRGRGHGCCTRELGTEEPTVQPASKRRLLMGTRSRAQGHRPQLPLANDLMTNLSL
# Method: For CETSA melting curve experiments, 80% confluent U2OS cells in a 75 cm^2 flask were transfected with a plasmid encoding full-length Flag-tagged KDM4A1–1,064 (ref. [15]) or KDM4E1–506 (ref. [20]) using Lipofectamine 2000 (Thermo Scientific) and incubated for 4 h. The cells were washed with PBS buffer and media replaced with fresh DMEM with 10% FBS, supplemented with cyclic peptides in DMSO (0.1% DMSO final). Cell dosing was carried out for 20 h at 37 °C. Control cells were dosed only with DMSO. The cells were trypsinized and washed thrice with PBS, by centrifugation (300 g, 3 min, 4 °C). Cells were re-suspended in PBS supplemented with Complete Protease inhibitor cocktail (Sigma) and divided into 8–10 aliquots (100 μl) containing equal cell numbers in PCR tubes. For ITDRF CETSA experiments, approximately 6 × 10^6 cells were seeded evenly into nine 25 cm^2 flask and adhered before transfection. After 4 h of incubation, the cells were washed with PBS buffer and the media replaced with fresh DMEM with 10% FBS supplemented with cyclic peptides at a final concentration between 0 and 4,000 nM (0.1% DMSO final). Cells were trypsinized and washed thrice with PBS using centrifugation (300 g, 3 min, 4 °C). Cells were re-suspended in PBS supplemented with protease inhibitor cocktail (Sigma), aliquots (100 μl) containing equal cell numbers in PCR tubes were prepared. […] For ITDRF, tubes were incubated at approximately the Tm of the proteins of interest as determined by CETSA melting curve experiments, for example, 55 °C (Tm for actin) for 3 min, followed by room temperature for 3 min. […]
# The samples (supernatant) were run on SDS–PAGE (NuPage Novex Bis-Tris 4–12% polyacrylamide gels with NuPAGE MES SDS running buffer (Thermo Scientific)) and transferred onto nitrocellulose membranes using either the iBlot blotting system. FLAG-KDM4A levels were determined by immunoblotting using a monoclonal mouse anti-FLAG primary antibody (F1804, Sigma), at a dilution of 1: 1,000 in PBS-T buffer containing Seablock Reagent Salmon Plasma (2% v/v, Calbiochem). […]
# [1] = test system: H3K9me3/H3K36me3 in HeLa cells; experiment: Immunofluorescence of global histone methylation, 72 h dosing; assay type: cell-based; conditions: 72 h treatment
# Source text: Supplementary Figure 12. Immunofluorescence analysis of global histone methylation levels after 72hr dosing of cyclic peptides in HeLa cells. (a)-(c) Immunofluorescence analysis of HeLa cells dosed with cyclic peptides for 72 hrs. Maximum intensity projected images of 3D confocal z-stacks showing nuclei stained with […]
# DMSO and CP2 treated cells. Bar represents 50µm. Global H3K9me3 (d) and associated nuclei count for the […]
# staining, (h) global H3K4me3 and (i) global H3K27me3 staining. An increase in fluorescence intensity, […]
# over certain concentration ranges. Average +/- s.e.m (n > 100 cells) are shown except at concentrations of […]
# A generic 2OG oxygenase inhibitor 5-carboxy-8-
# Immunofluorescence (IF) assay […]
# with 0.5% FBS and 1% Pen-Strep. […]
# grade plate (Becton Dickinson) and left overnight to adhere. Cells were dosed with cyclic […]
# After 30min blocking (3% FBS in […]
# three times after each incubation. […]
# Image acquisition and analysis […]
# image immunostained cells in a 96-well plate configuration. For each well, the system […]
# The average intensity for each […]
# analysed using GraphPad Prism 5. […]
sequence,measurement,setting,value
DYVYNTRSGWRWYTC [CP2],Intra-subfamily selectivity KDM4A-C over KDM4D-E,KDM4A,> 100 fold
same,"Selectivity by IC50 for KDM4 over other JmjC-demethylase families, PHD2, FIH and KDM1A",KDM4A,> 160 fold
same,CETSA stabilization / Tm shift of FLAG-KDM4E,FLAG-KDM4E,No significant changes in the Tm shift; also recorded: not stabilized
same,Change in global H3K9me3/H3K36me3 levels,[1],did not have any apparent effect; also recorded: no discernible changes

# Source: PMC5384220 (Nature Communications, 2017)
